Experimental findings from PubChem BioAssay (NCI) are described below.

Molecules are shown by their SMILES.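 Five concentrations, 48 hours, 96-well plates. TGI is the concentration that stops growth completely.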

One experiment concerns SF-539 CNS. As to the kind of experiment: NCI-60 cell line screen, 48 h.
In turn, `COc1ccc(Nc2c(C#N)c3n(c4ccccc24)c2ccccc2[n+]3C)cc1OC` came in with a TGI of 6.88 µM.

The subject of a further experiment is SK-MEL-2 melanoma. As to the kind of experiment: NCI-60 cell line screen, 48 h.
On to `CC(=O)OCC1OC(N2C(=O)/C(=C\c3ccc(Cl)cc3)C(N)=Nc3ccccc32)C(OC(C)=O)C(OC(C)=O)C1OC(C)=O` (configuration not stated), for which the TGI worked out at 74.6 µM.
The same measure, in the same setting: in the case of `COc1ncc(C=C(C#N)C#N)c(OC)n1` it was over 100 µM.
In turn, `COc1ccc(Nc2c(C#N)c3n(c4ccccc24)c2ccccc2[n+]3C)cc1OC` had a TGI of 14.9 µM.

In a further experiment the test system is SK-MEL-28 melanoma. Description: NCI-60 cell line screen, 48 h.
`CC(=O)OCC1OC(N2C(=O)/C(=C\c3ccc(Cl)cc3)C(N)=Nc3ccccc32)C(OC(C)=O)C(OC(C)=O)C1OC(C)=O` (configuration not stated) showed a TGI of 71.2 µM.
`COc1ncc(C=C(C#N)C#N)c(OC)n1` came in with a TGI of over 100 µM.
`COc1ccc(Nc2c(C#N)c3n(c4ccccc24)c2ccccc2[n+]3C)cc1OC` displayed a TGI of 17.9 µM.

For the next experiment, the system named is SK-MEL-5 melanoma. As to the kind of experiment: NCI-60 cell line screen, 48 h.
`CC(=O)OCC1OC(N2C(=O)/C(=C\c3ccc(Cl)cc3)C(N)=Nc3ccccc32)C(OC(C)=O)C(OC(C)=O)C1OC(C)=O` (configuration not stated) registered a TGI of 27.1 µM.
Compound `O=C(/C(=C(/Br)I)c1ccccc1)c1ccccc1` had a TGI of 41.8 µM.
Compound `COc1ncc(C=C(C#N)C#N)c(OC)n1` came in with a TGI of over 100 µM.
For the compound `COc1ccc(Nc2c(C#N)c3n(c4ccccc24)c2ccccc2[n+]3C)cc1OC`, the TGI is 15.5 µM.

The test system of the next experiment is SK-OV-3 ovarian. Description: NCI-60 cell line screen, 48 h.
In turn, `CC(=O)OCC1OC(N2C(=O)/C(=C\c3ccc(Cl)cc3)C(N)=Nc3ccccc32)C(OC(C)=O)C(OC(C)=O)C1OC(C)=O` (configuration not stated) had a TGI of over 100 µM.
`O=C(/C(=C(/Br)I)c1ccccc1)c1ccccc1` registered a TGI of over 100 µM.
The compound `COc1ncc(C=C(C#N)C#N)c(OC)n1` yielded a TGI of over 100 µM.
For the compound `COc1ccc(Nc2c(C#N)c3n(c4ccccc24)c2ccccc2[n+]3C)cc1OC`, the TGI stood at 23.3 µM.

In the next experiment the test system is SN12C renal. As to the kind of experiment: NCI-60 cell line screen, 48 h.
Compound `CC(=O)OCC1OC(N2C(=O)/C(=C\c3ccc(Cl)cc3)C(N)=Nc3ccccc32)C(OC(C)=O)C(OC(C)=O)C1OC(C)=O` (configuration not stated) showed a TGI of over 100 µM.
Compound `O=C(/C(=C(/Br)I)c1ccccc1)c1ccccc1` had a TGI of 49.9 µM.
With `COc1ncc(C=C(C#N)C#N)c(OC)n1`, the TGI was 74.8 µM.

A further experiment relates to SNB-19 CNS. As to the kind of experiment: NCI-60 cell line screen, 48 h.
`CC(=O)OCC1OC(N2C(=O)/C(=C\c3ccc(Cl)cc3)C(N)=Nc3ccccc32)C(OC(C)=O)C(OC(C)=O)C1OC(C)=O` (configuration not stated) registered a TGI of over 100 µM.
Same read-out and setting: next, `O=C(/C(=C(/Br)I)c1ccccc1)c1ccccc1`: over 100 µM; `COc1ncc(C=C(C#N)C#N)c(OC)n1`: over 100 µM.
In turn, `COc1ccc(Nc2c(C#N)c3n(c4ccccc24)c2ccccc2[n+]3C)cc1OC` yielded a TGI of 32.4 µM.

The next experiment relates to SNB-75 CNS. As to the kind of experiment: NCI-60 cell line screen, 48 h.
Consider `CC(=O)OCC1OC(N2C(=O)/C(=C\c3ccc(Cl)cc3)C(N)=Nc3ccccc32)C(OC(C)=O)C(OC(C)=O)C1OC(C)=O` (configuration not stated), for which the TGI amounted to 74.4 µM.
As for `O=C(/C(=C(/Br)I)c1ccccc1)c1ccccc1`, the TGI came out at 71 µM.
Compound `COc1ncc(C=C(C#N)C#N)c(OC)n1` showed a TGI of over 100 µM.
`COc1ccc(Nc2c(C#N)c3n(c4ccccc24)c2ccccc2[n+]3C)cc1OC` registered a TGI of 9.52 µM.

The subject of the next experiment is SR leukemia. As to the kind of experiment: NCI-60 cell line screen, 48 h.
In turn, `CC(=O)OCC1OC(N2C(=O)/C(=C\c3ccc(Cl)cc3)C(N)=Nc3ccccc32)C(OC(C)=O)C(OC(C)=O)C1OC(C)=O` (configuration not stated) returned a TGI of 51.1 µM.
`O=C(/C(=C(/Br)I)c1ccccc1)c1ccccc1` showed a TGI of over 100 µM.
`COc1ncc(C=C(C#N)C#N)c(OC)n1`: the TGI worked out at 53.5 µM.
With `COc1ccc(Nc2c(C#N)c3n(c4ccccc24)c2ccccc2[n+]3C)cc1OC`, the TGI is over 100 µM.

Another experiment relates to SW-620 colon. Description: NCI-60 cell line screen, 48 h.
The compound `CC(=O)OCC1OC(N2C(=O)/C(=C\c3ccc(Cl)cc3)C(N)=Nc3ccccc32)C(OC(C)=O)C(OC(C)=O)C1OC(C)=O` (configuration not stated) returned a TGI of over 100 µM.
On the same count and under the same terms, in the case of `COc1ncc(C=C(C#N)C#N)c(OC)n1` it was over 100 µM; in that of `COc1ccc(Nc2c(C#N)c3n(c4ccccc24)c2ccccc2[n+]3C)cc1OC`, 15.7 µM.

For a further experiment, the system named is T-47D breast. Description: NCI-60 cell line screen, 48 h.
As for `CC(=O)OCC1OC(N2C(=O)/C(=C\c3ccc(Cl)cc3)C(N)=Nc3ccccc32)C(OC(C)=O)C(OC(C)=O)C1OC(C)=O` (configuration not stated), the TGI turned out to be 39.1 µM.
With `O=C(/C(=C(/Br)I)c1ccccc1)c1ccccc1`, the TGI is 59.8 µM.
Compound `COc1ncc(C=C(C#N)C#N)c(OC)n1` registered a TGI of over 100 µM.
In the case of `COc1ccc(Nc2c(C#N)c3n(c4ccccc24)c2ccccc2[n+]3C)cc1OC`, the TGI is over 36.9 µM.

In another experiment the test system is TK-10 renal. As to the kind of experiment: NCI-60 cell line screen, 48 h.
Turning to `CC(=O)OCC1OC(N2C(=O)/C(=C\c3ccc(Cl)cc3)C(N)=Nc3ccccc32)C(OC(C)=O)C(OC(C)=O)C1OC(C)=O` (configuration not stated), the TGI turned out to be 88.2 µM.
Same read-out and setting: in the case of `O=C(/C(=C(/Br)I)c1ccccc1)c1ccccc1` it was 69.1 µM; in that of `COc1ncc(C=C(C#N)C#N)c(OC)n1`, over 100 µM.
On to `COc1ccc(Nc2c(C#N)c3n(c4ccccc24)c2ccccc2[n+]3C)cc1OC`, for which the TGI worked out at 12.4 µM.

The subject of the next experiment is U251 CNS. Description: NCI-60 cell line screen, 48 h.
Compound `CC(=O)OCC1OC(N2C(=O)/C(=C\c3ccc(Cl)cc3)C(N)=Nc3ccccc32)C(OC(C)=O)C(OC(C)=O)C1OC(C)=O` (configuration not stated) displayed a TGI of 30.5 µM.
In the case of `O=C(/C(=C(/Br)I)c1ccccc1)c1ccccc1`, the TGI was found to be 53.1 µM.
Compound `COc1ncc(C=C(C#N)C#N)c(OC)n1` yielded a TGI of over 100 µM.
The same measure, in the same setting: in the case of `COc1ccc(Nc2c(C#N)c3n(c4ccccc24)c2ccccc2[n+]3C)cc1OC` it was 17.9 µM.

In another experiment the test system is UACC-257 melanoma. Description: NCI-60 cell line screen, 48 h.
`CC(=O)OCC1OC(N2C(=O)/C(=C\c3ccc(Cl)cc3)C(N)=Nc3ccccc32)C(OC(C)=O)C(OC(C)=O)C1OC(C)=O` (configuration not stated): the TGI is 66.6 µM.
In the case of `O=C(/C(=C(/Br)I)c1ccccc1)c1ccccc1`, the TGI was determined as 43.8 µM.
Consider `COc1ncc(C=C(C#N)C#N)c(OC)n1`, for which the TGI amounted to 57.8 µM.
`COc1ccc(Nc2c(C#N)c3n(c4ccccc24)c2ccccc2[n+]3C)cc1OC` showed a TGI of 17 µM.

Another experiment deals with UACC-62 melanoma. Description: NCI-60 cell line screen, 48 h.
The compound `CC(=O)OCC1OC(N2C(=O)/C(=C\c3ccc(Cl)cc3)C(N)=Nc3ccccc32)C(OC(C)=O)C(OC(C)=O)C1OC(C)=O` (configuration not stated) came in with a TGI of over 100 µM.
`O=C(/C(=C(/Br)I)c1ccccc1)c1ccccc1` gave a TGI of 34.4 µM.
The compound `COc1ncc(C=C(C#N)C#N)c(OC)n1` displayed a TGI of over 100 µM.
With `COc1ccc(Nc2c(C#N)c3n(c4ccccc24)c2ccccc2[n+]3C)cc1OC`, the TGI came out at 12.5 µM.

A further experiment concerns UO-31 renal. As to the kind of experiment: NCI-60 cell line screen, 48 h.
Compound `CC(=O)OCC1OC(N2C(=O)/C(=C\c3ccc(Cl)cc3)C(N)=Nc3ccccc32)C(OC(C)=O)C(OC(C)=O)C1OC(C)=O` (configuration not stated) had a TGI of 58.8 µM.
For the compound `O=C(/C(=C(/Br)I)c1ccccc1)c1ccccc1`, the TGI was determined as 41.3 µM.
With `COc1ncc(C=C(C#N)C#N)c(OC)n1`, the TGI is 56.8 µM.
As to `COc1ccc(Nc2c(C#N)c3n(c4ccccc24)c2ccccc2[n+]3C)cc1OC`, the TGI is 7.23 µM.
